From patent US10308689B2, “Dengue virus (DV) polypeptide sequences, T cell epitopes and methods and uses thereof” (LA JOLLA INSTITUTE FOR ALLERGY AND IMMUNOLOGY, priority 2010, dated 2019)

Tested on: PBMC of healthy adult blood donors from Colombo, Sri Lanka
Assay: Ex vivo IFNγ ELISPOT, HLA-matched PBMC of Sri Lankan blood donors
Type: cell-based, human
Set-up: Total Response per epitope: unit not given here
Conditions: for # donors responded: number of donors responding to the epitope
[1] = restricting HLA allele and serotype as given
[2] = total over responding donors, restricting HLA allele and serotype as given
[3] = HLA allele, supertype and serotype
[4] = summed IFNγ ELISPOT response per epitope, HLA allele and serotype as given

For CC[C@H](C)[C@H](NC(=O)[C@H](CO)NC(=O)[C@H](CCCCN)NC(=O)[C@H](CCCNC(=N)N)NC(=O)CNC(=O)[C@H](CO)NC(=O)[C@H](C)NC(=O)[C@@H](N)Cc1ccccc1)C(=O)N[C@H](C(=O)N[C@@H](CC(C)C)C(=O)O)[C@@H](C)O, the “# donors responded” value [1] was 1 and the “Total Response per epitope” value [2] was 26.7.

For CC[C@H](C)[C@H](NC(=O)[C@H](C)NC(=O)CNC(=O)[C@@H](N)Cc1ccccc1)C(=O)N[C@@H](Cc1ccc(O)cc1)C(=O)NCC(=O)N[C@@H](C)C(=O)N[C@@H](C)C(=O)N[C@@H](Cc1ccccc1)C(=O)O, the “# donors responded” value [1] was 3 and the “Total Response per epitope” value [2] was 798.3.

In the case of CC[C@H](C)[C@H](NC(=O)[C@@H]1CCCN1C(=O)[C@H](C)NC(=O)[C@H](CC(N)=O)NC(=O)[C@H](CO)NC(=O)[C@H](CCC(N)=O)NC(=O)[C@@H]1CCCN1C(=O)[C@@H](N)Cc1ccccc1)C(=O)N[C@@H](CCSC)C(=O)N[C@@H](CC(=O)O)C(=O)O, the “# donors responded” value [1] was 4 and the “Total Response per epitope” value [2] was 716.7.

With CC(C)C[C@H](NC(=O)[C@H](CO)NC(=O)[C@H](CC(N)=O)NC(=O)[C@H](CCC(=O)O)NC(=O)[C@H](CCCNC(=N)N)NC(=O)[C@H](CO)NC(=O)[C@@H](N)Cc1ccccc1)C(=O)N[C@@H](CO)C(=O)NCC(=O)N[C@H](C(=O)O)C(C)C the “# donors responded” value [1] was 1 and the “Total Response per epitope” value [2] was 101.7.

CC[C@H](C)[C@H](NC(=O)[C@H](C)NC(=O)[C@H](C)NC(=O)[C@H](CCSC)NC(=O)[C@@H](NC(=O)[C@@H](NC(=O)[C@@H](N)Cc1ccccc1)[C@@H](C)O)[C@@H](C)CC)C(=O)N[C@@H](CC(C)C)C(=O)N[C@@H](C)C(=O)N[C@@H](Cc1ccc(O)cc1)C(=O)O was tested, and the “# donors responded” value [1] was 2 and the “Total Response per epitope” value [2] was 675.0.

CC[C@H](C)[C@H](NC(=O)[C@H](C)NC(=O)[C@H](CC(C)C)NC(=O)[C@H](CS)NC(=O)[C@H](CC(C)C)NC(=O)[C@@H](NC(=O)CNC(=O)[C@H](CCSC)NC(=O)[C@@H](NC(=O)[C@@H](N)Cc1ccccc1)[C@@H](C)O)C(C)C)C(=O)O was tested, and the “# donors responded” value [1] was 1 and the “Total Response per epitope” value [2] was 58.3.

In the case of CSCC[C@H](NC(=O)[C@@H](NC(=O)[C@@H](N)Cc1ccccc1)[C@@H](C)O)C(=O)N[C@@H](CCCNC(=N)N)C(=O)N[C@@H](Cc1c[nH]cn1)C(=O)N[C@@H](CCCCN)C(=O)N[C@@H](CCCCN)C(=O)N[C@@H](C)C(=O)N[C@H](C(=O)N[C@@H](Cc1ccc(O)cc1)C(=O)O)[C@@H](C)O, the “# donors responded” value [1] was 4, the “T cell response [SFC]” value (per epitope, ex vivo IFNγ SFC/10^6 PBMC) was 1723 SFC and the “# of responders” value (responding donors, HLA allele(s)) was 4. For the same compound, the “Total Response per epitope” value [2] was 1723.3.

In the case of CC[C@H](C)[C@H](NC(=O)[C@@H]1CCCN1C(=O)[C@H](CCC(=O)O)NC(=O)[C@H](CCC(=O)O)NC(=O)[C@H](Cc1c[nH]cn1)NC(=O)CNC(=O)[C@@H]1CCCN1C(=O)CN)C(=O)N1CCC[C@H]1C(=O)N[C@@H](CCSC)C(=O)O, the “# donors responded” value [1] was 3 and the “Total Response per epitope” value [2] was 235.0.

For CC(C)C[C@H](NC(=O)[C@H](CCC(=O)O)NC(=O)[C@H](CC(C)C)NC(=O)[C@H](CCCCN)NC(=O)CNC(=O)[C@H](CC(C)C)NC(=O)[C@H](Cc1c[nH]cn1)NC(=O)[C@H](Cc1c[nH]c2ccccc12)NC(=O)[C@@H]1CCCN1C(=O)CN)C(=O)O, the “# donors responded” value [1] was 2 and the “Total Response per epitope” value [2] was 495.0.

In the case of CSCC[C@H](NC(=O)[C@H](CCC(=O)O)NC(=O)[C@H](CC(C)C)NC(=O)[C@H](CCCCN)NC(=O)CNC(=O)[C@H](CC(C)C)NC(=O)[C@H](Cc1c[nH]cn1)NC(=O)[C@H](Cc1c[nH]c2ccccc12)NC(=O)[C@@H]1CCCN1C(=O)CN)C(=O)O, the “# donors responded” value [1] was 3 and the “Total Response per epitope” value [2] was 90.0.

In the case of CC[C@H](C)[C@H](NC(=O)[C@@H](NC(=O)[C@H](Cc1ccccc1)NC(=O)CNC(=O)[C@@H]1CCCN1C(=O)[C@@H](N)Cc1c[nH]cn1)[C@@H](C)O)C(=O)N[C@@H](CC(C)C)C(=O)N[C@@H](C)C(=O)N[C@@H](CC(C)C)C(=O)N[C@@H](Cc1ccccc1)C(=O)O, the “# donors responded” value [1] was 9 and the “Total Response per epitope” value [2] was 3763.3.

For CC[C@H](C)[C@H](N)C(=O)N[C@@H](C)C(=O)N[C@@H](CC(N)=O)C(=O)N[C@@H](CCC(N)=O)C(=O)N[C@@H](C)C(=O)N[C@H](C(=O)N[C@H](C(=O)N[C@@H](CC(C)C)C(=O)N[C@@H](CCSC)C(=O)O)C(C)C)[C@@H](C)O, the “# donors responded” value [1] was 7 and the “Total Response per epitope” value [2] was 1518.3.

In the case of CC[C@H](C)[C@H](NC(=O)[C@H](C)NC(=O)[C@H](C)NC(=O)[C@H](CCSC)NC(=O)[C@@H](NC(=O)[C@@H](N)[C@@H](C)O)[C@@H](C)CC)C(=O)N[C@@H](CC(C)C)C(=O)N[C@@H](C)C(=O)N[C@@H](Cc1ccc(O)cc1)C(=O)O, the “# donors responded” value [1] was 1 and the “Total Response per epitope” value [2] was 20.0.

In the case of CC[C@H](C)[C@H](NC(=O)[C@@H](NC(=O)[C@H](CC(=O)O)NC(=O)[C@H](CCSC)NC(=O)[C@@H](NC(=O)[C@H](C)NC(=O)CNC(=O)[C@H](CCCCN)NC(=O)[C@@H]1CCCN1C(=O)[C@@H](N)[C@@H](C)O)C(C)C)[C@@H](C)CC)C(=O)O, the “# donors responded” value [3] was 1 and the “Total Response per epitope” value [4] was 105.0.

In the case of CC(C)C[C@H](NC(=O)[C@H](CCC(N)=O)NC(=O)[C@H](CC(N)=O)NC(=O)[C@H](CC(=O)O)NC(=O)[C@H](CCC(N)=O)NC(=O)[C@@H]1CCCN1C(=O)[C@@H](N)[C@@H](C)O)C(=O)N[C@H](C(=O)N[C@@H](Cc1ccc(O)cc1)C(=O)O)[C@@H](C)O, the “# donors responded” value [3] was 1 and the “Total Response per epitope” value [4] was 75.0.

CC[C@H](C)[C@H](NC(=O)[C@@H](NC(=O)[C@H](CC(=O)O)NC(=O)[C@H](CCSC)NC(=O)[C@@H](NC(=O)[C@@H](NC(=O)CNC(=O)[C@H](CCCNC(=N)N)NC(=O)[C@@H]1CCCN1C(=O)[C@@H](N)[C@@H](C)O)[C@@H](C)O)C(C)C)[C@@H](C)CC)C(=O)O was tested, and the “# donors responded” value [3] was 1 and the “Total Response per epitope” value [4] was 331.7.

CC[C@H](C)[C@H](NC(=O)[C@H](C)NC(=O)[C@H](Cc1ccc(O)cc1)NC(=O)[C@H](Cc1c[nH]cn1)NC(=O)[C@@H](NC(=O)[C@@H](NC(=O)[C@H](CC(C)C)NC(=O)[C@H](CC(C)C)NC(=O)[C@H](CC(C)C)NC(=O)[C@@H](N)C(C)C)C(C)C)[C@@H](C)O)C(=O)O was tested, and the “# donors responded” value [3] was 1 and the “Total Response per epitope” value [4] was 40.0.

With CSCC[C@H](NC(=O)[C@H](CC(N)=O)NC(=O)[C@@H](NC(=O)[C@H](CO)NC(=O)[C@H](CO)NC(=O)[C@@H](N)C(C)C)C(C)C)C(=O)N[C@H](C(=O)N[C@@H](CO)C(=O)N[C@@H](CCCNC(=N)N)C(=O)N[C@@H](CC(C)C)C(=O)O)C(C)C the “# donors responded” value [3] was 1 and the “Total Response per epitope” value [4] was 421.7.

CC(C)C[C@H](NC(=O)[C@H](CCCNC(=N)N)NC(=O)[C@H](Cc1c[nH]cn1)NC(=O)[C@H](CC(=O)O)NC(=O)[C@H](CS)NC(=O)[C@H](CC(C)C)NC(=O)[C@H](CCC(N)=O)NC(=O)[C@@H](NC(=O)[C@H](Cc1ccc(O)cc1)NC(=O)[C@@H](N)C(C)C)[C@@H](C)O)C(=O)O was tested, and the “# donors responded” value [3] was 1 and the “Total Response per epitope” value [4] was 21.7.

In the case of C[C@H](NC(=O)[C@@H](N)Cc1c[nH]c2ccccc12)C(=O)N[C@@H](Cc1ccc(O)cc1)C(=O)N[C@@H](Cc1c[nH]cn1)C(=O)NCC(=O)N[C@@H](CO)C(=O)N[C@@H](Cc1ccc(O)cc1)C(=O)N[C@@H](CCC(=O)O)C(=O)N[C@H](C(=O)O)[C@@H](C)O, the “# donors responded” value [3] was 3 and the “Total Response per epitope” value [4] was 1220.0.

CC(C)C[C@H](NC(=O)CNC(=O)[C@H](C)NC(=O)CNC(=O)[C@H](C)NC(=O)[C@H](CC(C)C)NC(=O)[C@@H](N)Cc1ccc(O)cc1)C(=O)N[C@@H](C)C(=O)N[C@@H](Cc1ccccc1)C(=O)O was tested, and the “# donors responded” value [3] was 3 and the “Total Response per epitope” value [4] was 340.0.
